What was measured:
[1] = tested on: A-375; experiment: Antiproliferative activity aganist human A375 cells incubated for 72 hrs by MTT assay; format: functional, cell-based; details: A-375, 72 h
[2] = tested on: MCF7; experiment: Antiproliferative activity aganist human MCF7 cells incubated for 72 hrs by MTT assay; format: functional, cell-based; details: MCF7, 72 h
[3] = tested on: A549; experiment: Antiproliferative activity aganist human A549 cells incubated for 72 hrs by MTT assay; format: functional, cell-based; details: A549, 72 h
[4] = Selectivity index, ratio of IC50 for human PBMC cells to IC50 for human Jurkat cells; format: toxicity; details: PBMC cells and Jurkat cells, read-out: Ratio IC50
[5] = biological target: Receptor tyrosine-protein kinase erbB-2 (Homo sapiens, UniProt P04626); experiment: Inhibition of recombinant human N-terminal GST-tagged HER2 (676 to end residues) expressed in baculovirus infected Sf9 insect cells using Poly (4:1 Glu, Tyr) peptide as substrate incubated for 1 hr by ADP-Glo assay
[6] = tested on: A549; experiment: Induction of apoptosis in human A549 cells assessed as increase in apoptosis/necrosis cells at IC50 incubated for 24 hrs by Annexin V-FITC/ethidium homodimer 3 staining based fluorescence microscopic method relative to control; format: functional
[7] = biological target: Receptor tyrosine-protein kinase erbB-4 (Homo sapiens, UniProt Q15303); experiment: Inhibition of recombinant human N-terminal GST-tagged HER4 (682 to 993 residues) expressed in baculovirus infected Sf9 insect cells using Poly (4:1 Glu, Tyr) peptide as substrate incubated for 1 hr by ADP-Glo assay
[8] = biological target: Epidermal growth factor receptor (Homo sapiens, UniProt P00533); experiment: Inhibition of recombinant human N-terminal GST-tagged EGFR (695 to end residues) expressed in baculovirus infected Sf9 insect cells using Poly (4:1 Glu, Tyr) peptide as substrate incubated for 1 hr by ADP-Glo assay
[9] = tested on: MCF7; experiment: Induction of apoptosis in human MCF7 cells assessed as increase in necrosis cells at IC50 incubated for 24 hrs by Annexin V-FITC/ethidium homodimer 3 staining based fluorescence microscopic method relative to control; format: functional
[10] = tested on: PBMC; experiment: Cytotoxicity against human PBMC cells assessed as reduction in cell viability incubated for 72 hrs by MTT assay; format: cell-based
[11] = biological target: Platelet-derived growth factor receptor alpha (Homo sapiens, UniProt P16234); experiment: Inhibition of recombinant human N-terminal GST-tagged PDGFRalpha (550 to end residues) expressed in baculovirus infected Sf9 insect cells using Poly (4:1 Glu, Tyr) peptide as substrate incubated for 1 hr by ADP-Glo assay
[12] = biological target: Insulin-like growth factor 1 receptor (Homo sapiens, UniProt P08069); experiment: Inhibition of recombinant human N-terminal His-tagged IGF1R (960 to end residues) expressed in baculovirus infected Sf9 insect cells using IGF1Rtide as substrate incubated for 1 hr by ADP-Glo assay
[13] = tested on: A549; experiment: Induction of apoptosis in human A549 cells assessed as increase in necrosis cells at IC50 incubated for 24 hrs by Annexin V-FITC/ethidium homodimer 3 staining based fluorescence microscopic method relative to control; format: functional
[14] = biological target: Platelet-derived growth factor receptor beta (Homo sapiens, UniProt P09619); experiment: Inhibition of recombinant human N-terminal GST-tagged PDGFRbeta (557 to end residues) expressed in baculovirus infected Sf9 insect cells using Poly (4:1 Glu, Tyr) peptide as substrate incubated for 1 hr by ADP-Glo assay
[15] = biological target: Vascular endothelial growth factor receptor 2 (Homo sapiens, UniProt P35968); experiment: Inhibition of recombinant human N-terminal GST-tagged KDR (789 to end residues) expressed in baculovirus infected Sf9 insect cells using Poly (4:1 Glu, Tyr) peptide as substrate incubated for 1 hr by ADP-Glo assay
[16] = tested on: MCF7; experiment: Induction of apoptosis in human MCF7 cells assessed as increase in apoptosis/necrosis cells at IC50 incubated for 24 hrs by Annexin V-FITC/ethidium homodimer 3 staining based fluorescence microscopic method relative to control; format: functional
[17] = biological target: Insulin receptor (Homo sapiens, UniProt P06213); experiment: Inhibition of recombinant human N-terminal GST-tagged INSR (1011 to end residues) expressed in baculovirus infected Sf9 insect cells using Axltide as substrate incubated for 1 hr by ADP-Glo assay
[18] = tested on: MCF7; experiment: Induction of apoptosis in human MCF7 cells at IC50 incubated for 24 hrs by Annexin V-FITC/ethidium homodimer 3 staining based fluorescence microscopic method relative to control; format: functional
[19] = tested on: A549; experiment: Induction of apoptosis in human A549 cells at IC50 incubated for 24 hrs by Annexin V-FITC/ethidium homodimer 3 staining based fluorescence microscopic method relative to control; format: functional
[20] = tested on: Jurkat; experiment: Antiproliferative activity aganist human Jurkat cells incubated for 72 hrs by MTT assay; format: functional, cell-based

Sequence of Insulin-like growth factor 1 receptor (P08069 31-736 limits assumed): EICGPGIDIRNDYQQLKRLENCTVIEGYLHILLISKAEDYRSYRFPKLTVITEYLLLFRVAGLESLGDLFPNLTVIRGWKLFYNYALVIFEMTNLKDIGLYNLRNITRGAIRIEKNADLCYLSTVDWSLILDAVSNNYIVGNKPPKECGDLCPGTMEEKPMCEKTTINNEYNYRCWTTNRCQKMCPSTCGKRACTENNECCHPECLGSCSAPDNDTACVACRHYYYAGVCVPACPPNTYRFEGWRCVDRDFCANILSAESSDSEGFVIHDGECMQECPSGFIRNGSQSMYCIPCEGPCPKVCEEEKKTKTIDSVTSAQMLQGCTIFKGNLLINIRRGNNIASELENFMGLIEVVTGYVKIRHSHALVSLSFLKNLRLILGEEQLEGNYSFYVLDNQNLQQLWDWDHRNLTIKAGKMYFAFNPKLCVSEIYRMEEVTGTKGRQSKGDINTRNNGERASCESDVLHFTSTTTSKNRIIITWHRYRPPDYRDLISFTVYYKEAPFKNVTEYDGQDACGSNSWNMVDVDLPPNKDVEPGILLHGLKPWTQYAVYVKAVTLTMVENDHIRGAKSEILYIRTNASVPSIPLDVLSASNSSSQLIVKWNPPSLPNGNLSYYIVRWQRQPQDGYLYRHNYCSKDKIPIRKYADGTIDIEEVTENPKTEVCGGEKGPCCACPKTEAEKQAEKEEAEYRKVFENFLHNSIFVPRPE
Sequence of Insulin-like growth factor 1 receptor (P08069 741-1367 limits assumed): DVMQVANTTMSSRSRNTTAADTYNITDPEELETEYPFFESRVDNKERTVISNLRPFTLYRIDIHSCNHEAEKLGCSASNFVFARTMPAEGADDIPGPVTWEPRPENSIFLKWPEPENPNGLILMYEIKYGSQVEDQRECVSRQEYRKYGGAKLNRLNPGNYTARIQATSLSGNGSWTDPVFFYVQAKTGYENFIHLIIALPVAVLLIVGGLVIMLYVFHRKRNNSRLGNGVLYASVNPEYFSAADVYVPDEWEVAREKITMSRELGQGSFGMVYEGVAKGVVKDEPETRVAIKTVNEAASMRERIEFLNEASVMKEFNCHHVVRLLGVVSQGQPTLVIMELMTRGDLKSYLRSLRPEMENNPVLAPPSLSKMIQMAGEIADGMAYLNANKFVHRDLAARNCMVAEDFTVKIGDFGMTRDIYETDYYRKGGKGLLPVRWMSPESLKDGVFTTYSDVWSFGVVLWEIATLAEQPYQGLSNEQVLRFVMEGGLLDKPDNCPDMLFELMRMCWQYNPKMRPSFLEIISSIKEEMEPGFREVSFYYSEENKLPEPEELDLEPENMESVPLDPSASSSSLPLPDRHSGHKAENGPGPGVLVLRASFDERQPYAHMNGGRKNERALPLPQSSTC
Sequence of Vascular endothelial growth factor receptor 2 (P35968 whole entry): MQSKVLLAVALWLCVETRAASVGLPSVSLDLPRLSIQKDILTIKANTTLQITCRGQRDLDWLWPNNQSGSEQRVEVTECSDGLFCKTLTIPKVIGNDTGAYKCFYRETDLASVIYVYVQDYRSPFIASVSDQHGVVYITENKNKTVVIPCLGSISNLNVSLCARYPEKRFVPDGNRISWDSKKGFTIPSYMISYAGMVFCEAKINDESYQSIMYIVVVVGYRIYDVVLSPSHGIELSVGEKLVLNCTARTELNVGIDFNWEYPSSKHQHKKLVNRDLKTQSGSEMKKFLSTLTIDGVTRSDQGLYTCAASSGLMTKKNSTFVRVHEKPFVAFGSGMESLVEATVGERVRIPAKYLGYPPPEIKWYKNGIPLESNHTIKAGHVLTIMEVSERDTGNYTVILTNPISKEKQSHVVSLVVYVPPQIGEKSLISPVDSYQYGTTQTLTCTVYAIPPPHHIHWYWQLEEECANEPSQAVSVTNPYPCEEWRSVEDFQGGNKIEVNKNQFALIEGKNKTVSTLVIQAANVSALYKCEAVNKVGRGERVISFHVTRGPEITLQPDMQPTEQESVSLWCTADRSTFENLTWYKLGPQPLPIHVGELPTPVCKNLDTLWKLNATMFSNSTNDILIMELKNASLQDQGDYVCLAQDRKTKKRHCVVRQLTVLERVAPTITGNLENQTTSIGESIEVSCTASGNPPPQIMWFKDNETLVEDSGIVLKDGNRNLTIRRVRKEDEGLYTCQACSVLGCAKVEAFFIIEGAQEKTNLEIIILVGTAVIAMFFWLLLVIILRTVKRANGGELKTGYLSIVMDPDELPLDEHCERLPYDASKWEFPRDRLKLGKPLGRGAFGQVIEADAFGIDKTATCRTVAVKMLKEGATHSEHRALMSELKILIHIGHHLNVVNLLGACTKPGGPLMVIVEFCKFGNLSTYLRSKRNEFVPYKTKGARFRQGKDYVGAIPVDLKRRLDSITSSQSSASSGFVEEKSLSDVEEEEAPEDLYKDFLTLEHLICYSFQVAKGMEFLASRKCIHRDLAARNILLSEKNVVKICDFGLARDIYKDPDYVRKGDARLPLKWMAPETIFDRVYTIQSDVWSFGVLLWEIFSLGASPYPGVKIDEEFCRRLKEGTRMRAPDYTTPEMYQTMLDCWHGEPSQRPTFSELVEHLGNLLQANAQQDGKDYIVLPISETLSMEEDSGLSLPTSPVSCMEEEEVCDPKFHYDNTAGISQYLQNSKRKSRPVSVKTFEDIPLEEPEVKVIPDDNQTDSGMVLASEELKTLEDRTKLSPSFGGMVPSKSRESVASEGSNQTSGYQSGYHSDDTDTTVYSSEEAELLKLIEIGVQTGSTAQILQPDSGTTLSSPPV
Sequence of Insulin receptor (P06213 28-758 limits assumed): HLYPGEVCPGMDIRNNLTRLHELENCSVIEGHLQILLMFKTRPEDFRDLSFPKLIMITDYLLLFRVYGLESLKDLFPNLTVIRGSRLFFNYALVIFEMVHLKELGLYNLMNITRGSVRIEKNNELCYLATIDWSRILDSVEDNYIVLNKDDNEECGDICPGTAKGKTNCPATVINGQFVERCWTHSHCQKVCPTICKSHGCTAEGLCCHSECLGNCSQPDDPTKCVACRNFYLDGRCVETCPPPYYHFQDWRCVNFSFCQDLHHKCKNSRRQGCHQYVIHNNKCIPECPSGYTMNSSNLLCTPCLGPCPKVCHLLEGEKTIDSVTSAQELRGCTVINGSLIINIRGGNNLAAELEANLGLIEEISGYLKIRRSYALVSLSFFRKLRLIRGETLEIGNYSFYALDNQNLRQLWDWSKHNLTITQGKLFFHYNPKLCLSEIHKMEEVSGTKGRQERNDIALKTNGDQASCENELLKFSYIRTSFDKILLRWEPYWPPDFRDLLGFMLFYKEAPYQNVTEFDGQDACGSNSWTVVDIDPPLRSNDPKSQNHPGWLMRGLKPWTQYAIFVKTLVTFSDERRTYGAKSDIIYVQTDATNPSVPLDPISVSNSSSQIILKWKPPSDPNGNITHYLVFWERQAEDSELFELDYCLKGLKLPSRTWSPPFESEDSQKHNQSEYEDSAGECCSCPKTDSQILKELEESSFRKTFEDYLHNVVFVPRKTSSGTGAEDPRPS
Sequence of Insulin receptor (P06213 763-1382 limits assumed): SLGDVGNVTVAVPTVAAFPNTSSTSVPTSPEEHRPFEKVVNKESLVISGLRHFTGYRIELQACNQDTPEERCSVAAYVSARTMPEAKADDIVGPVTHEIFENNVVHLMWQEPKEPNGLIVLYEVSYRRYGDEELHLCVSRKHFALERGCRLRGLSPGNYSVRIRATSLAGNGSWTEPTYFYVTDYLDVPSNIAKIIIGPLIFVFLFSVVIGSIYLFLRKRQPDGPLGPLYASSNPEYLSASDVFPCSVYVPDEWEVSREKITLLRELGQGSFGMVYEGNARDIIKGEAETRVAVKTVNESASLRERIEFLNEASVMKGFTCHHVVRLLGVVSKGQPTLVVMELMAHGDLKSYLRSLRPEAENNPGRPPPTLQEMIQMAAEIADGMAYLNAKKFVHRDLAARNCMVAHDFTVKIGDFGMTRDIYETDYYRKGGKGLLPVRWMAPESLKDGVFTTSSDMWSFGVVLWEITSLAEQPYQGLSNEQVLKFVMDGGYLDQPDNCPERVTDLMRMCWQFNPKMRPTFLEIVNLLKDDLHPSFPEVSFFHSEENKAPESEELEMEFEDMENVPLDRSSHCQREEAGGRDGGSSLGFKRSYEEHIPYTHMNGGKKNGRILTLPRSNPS

SMILES	IC50 [1]	IC50 [2]	IC50 [3]	further results
O=[N+]([O-])c1ccc(-c2csc(N3N=C(c4ccc(N5CCOCC5)cc4)CC3c3ccc(Cl)cc3)n2)cc1 (stereo not drawn)	> 100 µM	> 100 µM	> 100 µM	
FC(F)(F)c1ccc(-c2csc(N3N=C(c4ccc(N5CCCCC5)cc4)CC3c3ccc(Cl)cc3)n2)cc1 (stereo not drawn)	64.2 µM	23.7 µM	42 µM	
N#Cc1ccc(-c2csc(N3N=C(c4ccc(N5CCCCC5)cc4)CC3c3ccc(Cl)cc3)n2)cc1 (stereo not drawn)	38.7 µM	9.76 µM	11.2 µM	selectivity ratio [4]: > 10; IC50 [5]: > 30 µM; Activity [6]: 15%; IC50 [7]: 29 µM; IC50 [8]: 4.71 µM; Activity [9]: 10%; IC50 [10]: 299 µM; IC50 [11]: > 30 µM; IC50 [12]: > 30 µM; Activity [13]: 8%; IC50 [14]: > 30 µM; IC50 [15]: 25.6 µM; Activity [16]: 27%; IC50 [17]: > 30 µM; Activity [18]: 63%; Activity [19]: 77%; IC50 [20]: 29.5 µM
NC(=S)N1N=C(c2ccc(N3CCOCC3)cc2)CC1c1ccc(Cl)cc1 (stereo not drawn)	> 100 µM	37.4 µM	> 100 µM	
NC(=S)N1N=C(c2ccc(N3CCCCC3)cc2)CC1c1ccc(Cl)cc1 (stereo not drawn)	> 100 µM	22.3 µM	33.8 µM	
Clc1ccc(C2CC(c3ccc(N4CCOCC4)cc3)=NN2c2nc(-c3ccccc3)cs2)cc1 (stereo not drawn)	> 100 µM	52.1 µM	76.5 µM	
Clc1ccc(-c2csc(N3N=C(c4ccc(N5CCOCC5)cc4)CC3c3ccc(Cl)cc3)n2)cc1 (stereo not drawn)	75.9 µM	14.9 µM	19 µM	
FC(F)(F)c1ccc(-c2csc(N3N=C(c4ccc(N5CCOCC5)cc4)CC3c3ccc(Cl)cc3)n2)cc1 (stereo not drawn)	> 100 µM	> 100 µM	39.3 µM	
Clc1ccc(C2CC(c3ccc(N4CCCCC4)cc3)=NN2c2nc(-c3ccc4ccccc4c3)cs2)cc1 (stereo not drawn)	> 100 µM	> 100 µM	> 100 µM	
C#Cc1cccc(Nc2ncnc3cc(OCCOC)c(OCCOC)cc23)c1 [ERLOTINIB]	27.3 µM	8.24 µM	22.4 µM	Activity [6]: 19%; Activity [9]: 13%; IC50 [10]: 39.3 µM; Activity [13]: 9%; Activity [16]: 21%; Activity [18]: 66%; Activity [19]: 72%; IC50 [20]: 12.1 µM
Clc1ccc(-c2csc(N3N=C(c4ccc(N5CCCCC5)cc4)CC3c3ccc(Cl)cc3)n2)cc1 (stereo not drawn)	> 100 µM	> 100 µM	46.4 µM	
Clc1ccc(C2CC(c3ccc(N4CCCCC4)cc3)=NN2c2nc(-c3ccccc3)cs2)cc1 (stereo not drawn)	65.8 µM	28.4 µM	64.2 µM	
CS(=O)(=O)c1ccc(-c2csc(N3N=C(c4ccc(N5CCOCC5)cc4)CC3c3ccc(Cl)cc3)n2)cc1 (stereo not drawn)	> 100 µM	67.2 µM	10.7 µM	
O=[N+]([O-])c1ccc(-c2csc(N3N=C(c4ccc(N5CCCCC5)cc4)CC3c3ccc(Cl)cc3)n2)cc1 (stereo not drawn)	> 100 µM	> 100 µM	> 100 µM	
CS(=O)(=O)c1ccc(-c2csc(N3N=C(c4ccc(N5CCCCC5)cc4)CC3c3ccc(Cl)cc3)n2)cc1 (stereo not drawn)	> 100 µM	> 100 µM	> 100 µM	
Fc1ccc(-c2csc(N3N=C(c4ccc(N5CCOCC5)cc4)CC3c3ccc(Cl)cc3)n2)cc1 (stereo not drawn)	84.4 µM	9.59 µM	8.95 µM	selectivity ratio [4]: > 10; IC50 [5]: 6.96 µM; Activity [6]: 23%; IC50 [7]: 1.5 µM; IC50 [8]: 23.3 µM; Activity [9]: 8%; IC50 [10]: > 300 µM; IC50 [11]: > 30 µM; IC50 [12]: 3.28 µM; Activity [13]: 12%; IC50 [14]: > 30 µM; IC50 [15]: 10.5 µM; Activity [16]: 14%; IC50 [17]: 9.79 µM; Activity [18]: 78%; Activity [19]: 65%; IC50 [20]: 23.4 µM
Clc1ccc(C2CC(c3ccc(N4CCCCC4)cc3)=NN2c2nc(-c3ccc(Br)cc3)cs2)cc1 (stereo not drawn)	> 100 µM	> 100 µM	39.7 µM	

The next lines start with results.

IC50 [1]	IC50 [2]	IC50 [3]	SMILES	further results
> 100 µM	> 100 µM	> 100 µM	Cc1ccc(-c2csc(N3N=C(c4ccc(N5CCCCC5)cc4)CC3c3ccc(Cl)cc3)n2)cc1 (stereo not drawn)	
> 100 µM	> 100 µM	> 100 µM	Cc1ccc(-c2csc(N3N=C(c4ccc(N5CCOCC5)cc4)CC3c3ccc(Cl)cc3)n2)cc1 (stereo not drawn)	
> 100 µM	> 100 µM	> 100 µM	COc1ccc(-c2csc(N3N=C(c4ccc(N5CCOCC5)cc4)CC3c3ccc(Cl)cc3)n2)cc1 (stereo not drawn)	
> 100 µM	> 100 µM	> 100 µM	COc1ccc(-c2csc(N3N=C(c4ccc(N5CCCCC5)cc4)CC3c3ccc(Cl)cc3)n2)cc1 (stereo not drawn)	
53.5 µM	8.05 µM	10.8 µM	N#Cc1ccc(-c2csc(N3N=C(c4ccc(N5CCOCC5)cc4)CC3c3ccc(Cl)cc3)n2)cc1 (stereo not drawn)	selectivity ratio [4]: > 10; IC50 [5]: 2.28 µM; Activity [6]: 19%; IC50 [7]: 4.68 µM; Activity [9]: 27%; IC50 [10]: 299 µM; IC50 [11]: > 30 µM; IC50 [12]: 10.3 µM; Activity [13]: 13%; IC50 [14]: > 30 µM; IC50 [15]: 10.8 µM; Activity [16]: 32%; IC50 [17]: > 30 µM; Activity [18]: 51%; Activity [19]: 68%; IC50 [20]: 41 µM
> 100 µM	70.6 µM	94.3 µM	Clc1ccc(C2CC(c3ccc(N4CCOCC4)cc3)=NN2c2nc(-c3ccc(Br)cc3)cs2)cc1 (stereo not drawn)	
71.4 µM	23.1 µM	70.2 µM	Fc1ccc(-c2csc(N3N=C(c4ccc(N5CCCCC5)cc4)CC3c3ccc(Cl)cc3)n2)cc1 (stereo not drawn)	
> 100 µM	> 100 µM	> 100 µM	Clc1ccc(C2CC(c3ccc(N4CCOCC4)cc3)=NN2c2nc(-c3ccc4ccccc4c3)cs2)cc1 (stereo not drawn)	

From ChEMBL document CHEMBL4406839, “Design, synthesis and biological evaluation of a new series of thiazolyl-pyrazolines as dual EGFR and HER2 inhibitors” (Eur J Med Chem, 2019)
